Here are results for 31 compounds from patent US7495104B2, “Quinoline or quinazoline derivatives inhibiting auto-phosphorylation of fibroblast growth factor receptors” (Kirin Beer Kabushiki Kaisha, priority 2001, dated 2009).

Each structure is given as a SMILES string.

In the assay the target is Bek (Homo sapiens, UniProt P21802). In words: Inhibitory activity against Bek-autophosphorylation using ELISA method in OCUM-2MD3 cells. The format is cell-based. As to conditions: 1 hr with compound, read-out: IC50 (concentration necessary for inhibiting 50% of Bek-phosphorylation). Summed up: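 Sandwich ELISA (anti-phosphotyrosine capture, anti-Bek detection, peroxidase, 450 nm) measured Bek autophosphorylation in OCUM-2MD3 lysates after 1 hr compound treatment at 37° C in 0.1% serum medium. IC50 derived by scaling between no-drug (100%) and excess positive control at 1000 nM (0%).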
Bek, sequence (P21802 431-767 limits assumed): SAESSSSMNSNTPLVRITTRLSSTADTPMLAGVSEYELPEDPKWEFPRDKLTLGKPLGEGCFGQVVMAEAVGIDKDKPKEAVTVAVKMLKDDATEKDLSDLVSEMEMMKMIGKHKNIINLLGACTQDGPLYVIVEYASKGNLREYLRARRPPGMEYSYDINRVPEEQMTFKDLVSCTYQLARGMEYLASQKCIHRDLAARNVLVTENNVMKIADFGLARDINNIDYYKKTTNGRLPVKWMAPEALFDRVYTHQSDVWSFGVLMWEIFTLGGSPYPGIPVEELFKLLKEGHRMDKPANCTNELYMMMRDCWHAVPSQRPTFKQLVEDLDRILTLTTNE
On the technique in general: An ELISA detects its analyte on a solid surface through an enzyme-linked reagent.
For `COc1cc2c(Oc3ccc(NC(=O)NCCC(C)(C)C)c(F)c3)ccnc2cc1OCCNCCO` [Compound 329, 1-(3,3-Dimethyl-butyl)-3-(2-fluoro-4-{7-[2-(2-hydroxy-ethylamino)-ethoxy]-6-methoxy-quinolin-4-yloxy}-phenyl)-urea], the IC50 came out at 20.8 nM.

Turning to `COc1cc2nccc(Oc3ccc(NC(=O)NC4CCCC(C)(C)C4)cc3)c2cc1OC` (stereo not shown) [Compound 108, 1-[4-(6,7-Dimethoxy-quinolin-4-yloxy)-phenyl]-3-(3,3-dimethyl-cyclohexyl)-urea], the IC50 was below 10 nM.

Consider `COc1cc2c(Oc3ccc(NC(=O)NCCC(C)(C)C)cc3)ccnc2cc1OCCN1CCC(O)CC1` [Compound 373, 1-(3,3-Dimethyl-butyl)-3-(4-{7-[2-(4-hydroxy-piperidin-1-yl)-ethoxy]-6-methoxy-quinolin-4-yloxy}-phenyl)-urea], for which the IC50 was below 10 nM.

In the case of `COc1cc2c(Oc3ccc(Nc4ccc(C(C)(C)C)cc4)cc3F)ccnc2cc1OCCCN1CCC(CO)CC1` [Compound 270, [1-(3-{4-[4-(4-Tert-butyl-phenylamino)-2-fluoro-phenoxy]-6-methoxy-quinolin-7-yloxy}-propyl)-piperidin-4-yl]-methanol], the IC50 was 303 nM.

For `COc1cc2c(Oc3ccc(Nc4ccc(C(C)(C)C)cc4)cc3Cl)ccnc2cc1OCCN1CCC(CCO)CC1` [Compound 313, 2-[1-(2-{4-[4-(4-Tert-butyl-phenylamino)-2-chloro-phenoxy]-6-methoxy-quinolin-7-yloxy}-ethyl)-piperidin-4-yl]-ethanol], the IC50 is 367 nM.

Regarding `COc1cc2c(Oc3ccc(Nc4ccc(C(C)(C)C)cc4)cc3)ccnc2cc1O` [Compound 21, 4-[4-(4-Tert-butylphenylamino)phenoxy]-6-methoxy-quinolin-7-ol], the IC50 amounted to 328 nM.

`COc1cc2c(Oc3ccc(NC(=O)NCCC(C)(C)C)cc3Cl)ccnc2cc1OCCCN1CCC(CCO)CC1` [Compound 316, 1-[3-Chloro-4-(7-{3-[4-(2-hydroxy-ethyl)-piperidin-1-yl]-propoxy}-6-methoxy-quinolin-4-yloxy)-phenyl]-3-(3,3-dimethyl-butyl)-urea]: the IC50 worked out at 85.1 nM.

As for `COc1cc2c(Oc3ccc(Nc4ccc(C(C)(C)C)cc4)cc3)ccnc2cc1OCCN(CCO)C(C)C` [Compound 367, 2-[(2-{4-[4-(4-Tert-butyl-phenylamino)-phenoxy]-6-methoxy-quinolin-7-yloxy}-ethyl)-isopropyl-amino]-ethanol], the IC50 was determined as 468 nM.

`COc1cc2c(Oc3ccc(NC(=O)NCCC(C)(C)C)cc3Cl)ccnc2cc1OCCN1CCC(CO)CC1` [Compound 312, 1-(3-Chloro-4-{7-[2-(4-hydroxymethyl-piperidin-1-yl)-ethoxy]-6-methoxy-quinolin-4-yloxy}-phenyl)-3-(3,3-dimethyl-butyl)-urea]: the IC50 was found to be 20.5 nM.

As for `COc1cc2c(Oc3ccc(NC(=O)NCCC(C)(C)C)c(Cl)c3)ccnc2cc1OCC1CCCNC1` (stereo not shown) [Compound 190, 1-{2-Chloro-4-[6-methoxy-7-(piperidin-3-ylmethoxy)-quinolin-4-yloxy]-phenyl}-3-(3,3-dimethyl-butyl)-urea], the IC50 was found to be 33.5 nM.

Consider `COc1cc2nccc(Oc3ccc(NC(=O)NC4CC(C)CC(C)(C)C4)cc3)c2cc1OC` (stereo not shown) [Compound 105, 1-[4-(6,7-Dimethoxy-quinolin-4-yloxy)-phenyl]-3-(3,3,5-trimethyl-cyclohexyl)-urea], for which the IC50 came out at 30.6 nM.

As to `COc1cc2c(Oc3ccc(NC(=O)NCCC(C)(C)C)cc3)ccnc2cc1OCCCCl` [Compound 151, 1-{4-[7-(3-Chloro-propoxy)-6-methoxy-quinolin-4-yloxy]-phenyl}-3-(3,3-dimethyl-butyl)-urea], the IC50 was 221 nM.

As to `COc1cc2c(Oc3ccc(NC(=O)NCCC(C)(C)C)cc3F)ccnc2cc1OCCN1CCC(CCO)CC1` [Compound 297, 1-(3,3-Dimethyl-butyl)-3-[3-fluoro-4-(7-{2-[4-(2-hydroxy-ethyl)-piperidin-1-yl]-ethoxy}-6-methoxy-quinolin-4-yloxy)-phenyl]-urea], the IC50 is 42.4 nM.

Regarding `COc1cc2c(Oc3ccc(Nc4ccc(C(C)(C)C)cc4)cc3)ccnc2cc1OCCN(CCO)Cc1ccccc1` [Compound 365, 2-[Benzyl-(2-{4-[4-(4-tert-butyl-phenylamino)-phenoxy]-6-methoxy-quinolin-7-yloxy}-ethyl)-amino]-ethanol], the IC50 amounted to 7130 nM.

For `COc1cc2c(Oc3ccc(Nc4ccc(C(C)(C)C)cc4)cc3)ccnc2cc1OCC1CCCN1C` (stereo not shown) [Compound 58, (4-Tert-butylphenyl)-{4-[6-methoxy-7-(1-methylpyrrolidin-2-ylmethoxy)quinolin-4-yloxy]phenyl}amine], the IC50 was determined as 1200 nM.

As for `COc1cc2c(Oc3ccc(Nc4ccc(C(C)(C)C)cc4)cc3)ccnc2cc1OCCNCC1CCCO1` (stereo not shown) [Compound 347, N1-[4-(Tert-butyl)phenyl]-4-[(6-methoxy-7-{2-[(tetrahydro-2-furanylmethyl)amino]ethoxy}-4-quinolyl)oxy]aniline], the IC50 turned out to be 354 nM.

Consider `CCN(CCO)CCCOc1cc2nccc(Oc3ccc(NC(=O)NCCC(C)(C)C)c(F)c3)c2cc1OC` [Compound 344, 1-(3,3-Dimethyl-butyl)-3-[4-(7-{3-[ethyl-(2-hydroxy-ethyl)-amino]-propoxy}-6-methoxy-quinolin-4-yloxy)-2-fluoro-phenyl]-urea], for which the IC50 was below 10 nM.

Take `COc1cc2c(Oc3ccc(NC(=O)NCCC(C)(C)C)c(Cl)c3)ccnc2cc1OCCN1CCCCCC1` [Compound 185, 1-{4-[7-(2-Azepan-1-yl-ethoxy)-6-methoxy-quinolin-4-yloxy]-2-chloro-phenyl}-3-(3,3-dimethyl-butyl)-urea]: the IC50 worked out at 54.8 nM.

With `COc1cc2nccc(Oc3ccc(NC(=O)NC4CCCC(C)(C)C4)c(Cl)c3)c2cc1OC` (stereo not shown) [Compound 110, 1-[2-Chloro-4-(6,7-dimethoxy-quinolin-4-yloxy)-phenyl]-3-(3,3-dimethyl-cyclohexyl)-urea], the IC50 is below 10 nM.

For `COc1cc2c(Oc3ccc(Nc4ccc(C(C)(C)C)cc4)cc3)ccnc2cc1OCCN1CCCC1` [Compound 39, (4-Tert-butylphenyl)-{4-[6-methoxy-7-(2-pyrrolidin-1-ylethoxy)-quinolin-4-yloxy]phenyl}amine], the IC50 turned out to be 570 nM.

On to `COc1cc2c(Oc3ccc(Nc4ccc(C(C)(C)C)cc4)c(Cl)c3)ccnc2cc1OCCCN1CCC(O)CC1` [Compound 276, 1-(3-{4-[4-(4-Tert-butyl-phenylamino)-3-chloro-phenoxy]-6-methoxy-quinolin-7-yloxy}-propyl)-piperidin-4-ol], for which the IC50 was 1130 nM.

For the compound `COc1cc2c(Oc3ccc(Nc4ccc(C(C)(C)C)cc4)cc3)ccnc2cc1OCCN(CC(C)O)CC(C)O` (stereo not shown) [Compound 352, 1-[(2-{4-[4-(4-Tert-butyl-phenylamino)-phenoxy]-6-methoxy-quinolin-7-yloxy}-ethyl)-(2-hydroxy-propyl)-amino]-propan-2-ol], the IC50 is 54.7 nM.

As for `COc1cc2c(Oc3ccc(NC(=O)NCCC(C)(C)C)cc3)ccnc2cc1OCCN(CC(C)O)CC(C)O` (stereo not shown) [Compound 360, 1-[4-(7-{2-[Bis-(2-hydroxy-propyl)-amino]-ethoxy}-6-methoxy-quinolin-4-yloxy)-phenyl]-3-(3,3-dimethyl-butyl)-urea], the IC50 came to 19.5 nM.

Turning to `COc1cc2c(Oc3ccc(Nc4ccc(C(C)(C)C)cc4)cc3)ccnc2cc1OCC1CCCCN1C` (stereo not shown) [Compound 55, (4-Tert-butylphenyl)-{4-[6-methoxy-7-(1-methylpiperidin-2-ylmethoxy)quinolin-4-yloxy]phenyl}amine], the IC50 came to 8000 nM.

In the case of `COc1cc2nccc(Oc3ccc(Nc4ccc(C5CCCCC5)cc4)cc3)c2cc1OC` [Compound 10, (4-Cyclohexylphenyl)-[4-(6,7-dimethoxyquinolin-4-yloxy)phenyl]-amine], the IC50 turned out to be 631 nM.

With `COc1cc2c(Oc3ccc(NC(=O)NCCC(C)(C)C)c(Cl)c3)ccnc2cc1OCCCN1CCC(CCO)CC1` [Compound 267, 1-[2-Chloro-4-(7-{3-[4-(2-hydroxy-ethyl)-piperidin-1-yl]-propoxy}-6-methoxy-quinolin-4-yloxy)-phenyl]-3-(3,3-dimethyl-butyl)-urea], the IC50 amounted to 26.7 nM.

Consider `COc1cc2c(Oc3ccc(NC(=O)NCCC(C)(C)C)cc3F)ccnc2cc1OCCN1CCC(CO)CC1` [Compound 295, 1-(3,3-Dimethyl-butyl)-3-(3-fluoro-4-{7-[2-(4-hydroxymethyl-piperidin-1-yl)-ethoxy]-6-methoxy-quinolin-4-yloxy}-phenyl)-urea], for which the IC50 was 14.4 nM.

In the case of `COc1cc2c(Oc3ccc(NC(=O)NCCC(C)(C)C)c(Cl)c3)ccnc2cc1OCC(O)CN1CCCCC1` (stereo not shown) [Compound 193, 1-{2-Chloro-4-[7-(2-hydroxy-3-piperidin-1-yl-propoxy)-6-methoxy-quinolin-4-yloxy]-phenyl}-3-(3,3-dimethyl-butyl)-urea], the IC50 is 17.4 nM.

For the compound `COc1cc2c(Oc3ccc(NC(=O)NCCC(C)(C)C)c(Cl)c3)ccnc2cc1OCC(O)CN(C)C` (stereo not shown) [Compound 199, 1-{2-Chloro-4-[7-(3-dimethylamino-2-hydroxy-propoxy)-6-methoxy-quinolin-4-yloxy]-phenyl}-3-(3,3-dimethyl-butyl)-urea], the IC50 is below 10 nM.

`CCNCC(O)COc1cc2nccc(Oc3ccc(NC(=O)NCCC(C)(C)C)c(Cl)c3)c2cc1OC` (stereo not shown) [Compound 198, 1-{2-Chloro-4-[7-(3-ethylamino-2-hydroxy-propoxy)-6-methoxy-quinolin-4-yloxy]-phenyl}-3-(3,3-dimethyl-butyl)-urea]: the IC50 was found to be 12.3 nM.

`COc1cc2c(Oc3ccc(NC(=O)NCCC(C)(C)C)c(Cl)c3)ccnc2cc1OCCCN1CCC(O)CC1` [Compound 268, 1-(2-Chloro-4-{7-[3-(4-hydroxy-piperidin-1-yl)-propoxy]-6-methoxy-quinolin-4-yloxy}-phenyl)-3-(3,3-dimethyl-butyl)-urea]: the IC50 stood at 15.7 nM.
